Measurements published in patent US6900202B2, “Di-substituted imineheterocyclic compounds” (priority 2000, dated 2005).

Columns and labels:
[1] = target: T1, α4β2 subtype of nicotinic acetylcholine receptors (Rattus norvegicus, UniProt P09483+P12390); assay: Binding assay at α4β2 subtype of nicotinic acetylcholine receptors ([3H]-cytisine, rat brain membrane)
T1 construct: examined using rat brain membrane obtained from whole homogenized brain; from tissue; host or cells: whole brain membranes of Fischer-344 male rats
T1 sequence (P09483 31-630): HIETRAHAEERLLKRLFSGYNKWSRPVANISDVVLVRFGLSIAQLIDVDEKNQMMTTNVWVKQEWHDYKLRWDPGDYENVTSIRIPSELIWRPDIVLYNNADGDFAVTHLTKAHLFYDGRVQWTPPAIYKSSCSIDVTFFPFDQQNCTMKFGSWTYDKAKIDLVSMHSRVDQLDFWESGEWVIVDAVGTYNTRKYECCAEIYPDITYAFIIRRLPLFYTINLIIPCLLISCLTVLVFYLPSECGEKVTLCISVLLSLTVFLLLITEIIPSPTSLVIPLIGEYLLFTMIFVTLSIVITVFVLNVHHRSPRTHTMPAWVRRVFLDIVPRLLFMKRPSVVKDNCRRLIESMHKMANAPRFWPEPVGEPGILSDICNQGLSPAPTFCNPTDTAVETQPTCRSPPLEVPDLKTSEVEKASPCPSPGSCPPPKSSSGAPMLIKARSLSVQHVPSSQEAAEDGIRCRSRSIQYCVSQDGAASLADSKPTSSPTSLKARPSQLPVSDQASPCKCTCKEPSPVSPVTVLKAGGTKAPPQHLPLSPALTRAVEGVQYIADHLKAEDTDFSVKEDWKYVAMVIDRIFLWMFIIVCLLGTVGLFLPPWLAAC
T1 sequence (P12390 25-500): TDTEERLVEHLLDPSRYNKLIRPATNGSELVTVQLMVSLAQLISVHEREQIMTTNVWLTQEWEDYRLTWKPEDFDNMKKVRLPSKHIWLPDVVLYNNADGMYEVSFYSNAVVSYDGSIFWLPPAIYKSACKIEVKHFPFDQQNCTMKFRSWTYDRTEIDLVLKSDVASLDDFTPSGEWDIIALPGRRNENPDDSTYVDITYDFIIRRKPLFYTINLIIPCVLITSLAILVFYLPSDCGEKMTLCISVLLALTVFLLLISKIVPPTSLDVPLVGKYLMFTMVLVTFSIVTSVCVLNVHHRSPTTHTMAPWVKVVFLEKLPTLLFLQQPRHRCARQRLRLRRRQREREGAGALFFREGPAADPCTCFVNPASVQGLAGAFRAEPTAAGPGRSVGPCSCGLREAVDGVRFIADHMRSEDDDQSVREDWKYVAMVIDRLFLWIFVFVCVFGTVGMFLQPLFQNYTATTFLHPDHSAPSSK
Source text: (§1) The methods for evaluating the binding capabilities of the compounds against nicotinic acetylcholine receptors are different by subtypes of receptors. The binding capabilities of the compounds at α4β2 nicotinic acetylcholine receptors are examined using rat brain membrane obtained from whole homogenized brain, and determining the inhibiting rate of the compounds against [^3H]-cytisine binding to said brain membrane. Furthermore, the binding capabilities of the compounds at α1β1γδ nicotinic acetylcholine receptors are examined using homogenized rat muscle, and determining the inhibiting rate of the compounds against [^3H]-α-bungarotoxin binding to said muscle membrane.
Binding Assays at α4β2 Subtype of Nicotinic Acetylcholine Receptors
The affinity of the compounds of the present invention to α4β2 subunit of nicotinic acetylcholine receptors was performed by the following method, which was modified method described by Pabreza L. A., Dhawan S. & Kellar K. J., Mol. Pharm., 39, 9-12 (1990), and by Anderson D. J. & Arneric S. P., Eur. J. Pharm., 253, 261-267 (1994).
(1) Preparation of Rat Brain Membrane Containing α4β2 subtype of Nicotinic Acetylcholine Receptors
Fischer-344 strain male rats (body weight: 200-240 g; 9 weeks old) obtained from Charles River Japan were used. Rats were housed in the breeding cage controlled of the room temperature at 23±1° C., and the humidity of 55±5% for 1 to 4 weeks. Rats (3 to 4 rats per a cage) were housed with lights on for 12 hours daily (from 7:00 to 19:00), and allowed free access to food and water.
Preparation of rat brain membrane containing α4β2 subtype of nicotinic acetylcholine receptors was performed as follow. That is, rat brains were isolated just after sacrificed by decapitation, washed with ice-cooled saline solution and then frozen at −80° C. with liquid nitrogen and stored till using. After thawing the frozen brain, the brain was homogenized in 10 volumes of buffer solution (50 mM of Tris-HCl, 120 mM of NaCl, 5 mM of KCl, 1 mM of MgCl2, 2mM of CaCl2; pH 7.4; 4° C.) using homogenizer (HG30, Hitachi Kohki Ltd.) for 30 seconds, and the homogenate were centrifuged under 1,000×G for 10 minutes at 4° C. The resulting supernatant was separated and the pellet was homogenized again with half volume of aforementioned prior buffer solution and centrifuged under the same conditions. Combined supernatant was further centrifuged under 40,000×G for 20 minutes at 4° C. The pellet was suspended in buffer solution and used for binding assays at receptors.
(2) Experiments of α4β2 Subtype of Nicotinic Acetylcholine Receptors Binding
Suspensions of membrane pellets containing 400-600 μg of protein were added to test tubes containing test compounds and [^3H]-cytisine (2 nM) in a final volume of 200 μl and incubated for 75 minutes in ice-cooled bath. The samples were isolated by vacuum filtration onto Whatman GF/B filters, which were prerinsed with 0.5% polyethylenimine just prior to sample filtration, using Brandel multi manifold cell harvester. The filters were rapidly washed with buffer solution (3×1 ml). The filters were counted in 3 ml of clearsol I (Nacalai Tesque Inc.).
The analyses of the experimental results were conducted by using the Accufit Competition Program (Beckman Ltd.).

[2] = target: T2, α1β1γδ subtype of nicotinic acetylcholine receptors (Rattus norvegicus, UniProt P18916+P25108+P25109+P25110); assay: biochemical; format: binding
T2 construct: The centrifugation at 100,000×G for 60 minutes at 4° C. yielded the rat muscle extract as supernatant
T2 sequence (P25108 21-457): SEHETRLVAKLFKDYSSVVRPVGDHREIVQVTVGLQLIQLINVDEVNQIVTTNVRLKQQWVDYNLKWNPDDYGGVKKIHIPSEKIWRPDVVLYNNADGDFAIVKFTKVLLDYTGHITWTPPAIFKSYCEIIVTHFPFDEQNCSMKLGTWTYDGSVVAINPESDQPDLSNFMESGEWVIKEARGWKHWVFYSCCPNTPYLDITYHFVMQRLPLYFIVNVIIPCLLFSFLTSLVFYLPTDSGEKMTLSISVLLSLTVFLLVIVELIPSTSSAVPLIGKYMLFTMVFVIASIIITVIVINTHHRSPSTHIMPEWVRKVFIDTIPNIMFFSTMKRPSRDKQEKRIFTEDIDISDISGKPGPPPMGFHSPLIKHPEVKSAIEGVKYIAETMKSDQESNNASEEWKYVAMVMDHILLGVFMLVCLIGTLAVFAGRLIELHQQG
T2 sequence (P25109 24-501): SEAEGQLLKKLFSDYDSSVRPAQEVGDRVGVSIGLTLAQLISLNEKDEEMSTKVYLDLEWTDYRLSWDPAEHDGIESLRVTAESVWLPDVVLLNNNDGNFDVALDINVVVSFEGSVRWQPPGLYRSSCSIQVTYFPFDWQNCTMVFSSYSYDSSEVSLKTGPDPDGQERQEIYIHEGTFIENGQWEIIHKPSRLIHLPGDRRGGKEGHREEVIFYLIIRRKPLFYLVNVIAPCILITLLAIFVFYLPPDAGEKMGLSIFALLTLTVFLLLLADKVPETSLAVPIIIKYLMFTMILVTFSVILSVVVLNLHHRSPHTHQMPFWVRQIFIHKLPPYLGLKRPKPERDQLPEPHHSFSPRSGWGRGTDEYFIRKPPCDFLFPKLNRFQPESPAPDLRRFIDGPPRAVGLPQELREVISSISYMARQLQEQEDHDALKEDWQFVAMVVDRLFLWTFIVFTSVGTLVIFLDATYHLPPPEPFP
T2 sequence (P25110 22-517): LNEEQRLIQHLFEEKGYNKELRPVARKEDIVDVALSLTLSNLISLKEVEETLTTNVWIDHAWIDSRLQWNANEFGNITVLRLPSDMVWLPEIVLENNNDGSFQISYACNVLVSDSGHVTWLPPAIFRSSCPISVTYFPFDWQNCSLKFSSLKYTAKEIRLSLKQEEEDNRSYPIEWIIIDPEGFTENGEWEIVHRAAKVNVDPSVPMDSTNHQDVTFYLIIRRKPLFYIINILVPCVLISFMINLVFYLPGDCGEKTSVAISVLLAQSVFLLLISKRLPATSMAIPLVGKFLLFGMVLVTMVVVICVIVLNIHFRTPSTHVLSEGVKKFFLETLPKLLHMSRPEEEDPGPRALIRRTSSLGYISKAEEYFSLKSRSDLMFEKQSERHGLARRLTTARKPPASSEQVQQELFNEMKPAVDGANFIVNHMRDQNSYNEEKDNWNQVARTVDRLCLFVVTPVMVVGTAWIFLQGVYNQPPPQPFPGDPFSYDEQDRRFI
Source text: as §1
(§2) Binding Assays at α1β1γδ Subtype of Nicotinic Acetylcholine Receptors
(§3) The affinity of the compounds of the present invention to α1β1γδ subtype of nicotinic acetylcholine receptors was measured by the following method, which was modified method described by Garcha H. S., Thomas P., Spivak C.
(§4) (1) Preparation of Rat Skeletal Muscles Containing α1β1γδ Subtype of Nicotinic Acetylcholine Receptors
(§5) The substantially same animals described in the Biological Experiment 1 were used.
(§6) The isolation of α1β1γδ subtype of nicotinic acetylcholine receptors was performed as follow. That is, rat posterior skeletal muscles were isolated just after sacrificed by decapitation, washed with ice-cooled saline solution and then frozen at −80° C. with liquid nitrogen and stored till using. After thawing the frozen muscles, tissue was homogenized (40% w/v) with buffer solution [2.5 mM of sodium phosphate buffer (pH:7.2), 90 mM of NaCl, 2 mM of KCl, 1 mM of EDTA, 2 mM of benzamidine, 0.1 mM of benzethonium chloride, 0.1 mM of PMSF, 0.01% of sodium azide] in Waring blender [Waring blender 34BL97; WARING PRODUCTS DIVISION DYNAMICS CORPORATION OF AMERICA) for 60 seconds. The homogenate were centrifuged under 20,000×G for 60 minutes at 4° C. The supernatant was separated and the resulting pellet was added to the same buffer (1.5 ml/g wet weight), and homogenized under the same conditions. Triton X100 (2% w/v) was added and the mixture was stirred for 3 hours at 4° C. The centrifugation at 100,000×G for 60 minutes at 4° C. yielded the rat muscle extract as supernatant. This was stored at 4° C. for up to 4 weeks, and used for binding assays at receptors.
(§7) (2) Experiments of α1β1γδ Subtype of Nicotinic Acetylcholine Receptors Binding
(§8) Receptors binding experiments were performed as follow. That is, the extract of rat muscle containing 600-900 μg of protein was added to test tubes containing test compounds and incubated for 15 minutes at 37° C. Then, to this mixture was added 1 nM of [^3H]-α-bungarotoxin (α-Bgt) and further incubated for 2 hours. The samples were isolated by vacuum filtration onto Whatman GF/B filters, which were prerinsed with 0.5% polyethylenimine just prior to sample filtration, using Brandel multi manifold cell harvester. The filters were rapidly rinsed with washing solution (10 mM of KH2PO4, 150 mM of NaCl, pH 7.2, room temperature) (5×1 ml). The filters were counted in 3 ml of clearsol I (Nacalai Tesque Inc.). The determination of nonspecific binding was incubated in the presence of 1 μM α-Bgt. […] In the receptor binding experiments, said buffer solution was added for adjusting the final concentration of BSA to be 0.05%.
(§9) The analyses of the experimental results were conducted by as described in the Biological Experiment 1.

[3] = target: T3, α1β1γδ subtype of nicotinic acetylcholine receptors (Rattus norvegicus, UniProt P25108); assay: biochemical; format: binding; details: % of control binding remaining
T3 construct: The centrifugation at 100,000×G for 60 minutes at 4° C. yielded the rat muscle extract as supernatant
T3 sequence (P25108 21-457): as the sequence (P25108 21-457) above
T3 sequence (P25109 24-501, further chain): as the sequence (P25109 24-501) above
T3 sequence (P25110 22-517, further chain): as the sequence (P25110 22-517) above
Source text: as §1, §2, §3, §4, §5, §6, §7, §8, §9

Structure (SMILES)	Ki [1] [nM]	Ki [2] [nM]	control % of [3H]-α-Bgt binding at 100 μM of test compound ([3]; 100 μM test compound) [%]	control % of [3H]-α-Bgt binding at 1,000 μM of test compound ([3]; 1,000 μM test compound) [%]
Clc1ccc(C/N=C2\SCCN2Cc2ccc(Cl)nc2)cn1 [Compound 1, 3-(6-chloro-3-pyridyl)methyl-2-[(6-chloro-3-pyridyl)methyl]iminothiazolidine]	16	420000		
Clc1ccc(C/N=C2\OCCCN2Cc2ccc(Cl)nc2)cn1 [Compound 2, 3-(6-chloro-3-pyridyl)methyl-2-[(6-chloro-3-pyridyl)-methyl]imino-3,4,5,6-tetrahydro-2H-1,3-oxazine]	22		95	56
Clc1ccc(C/N=c2\sccn2Cc2ccc(Cl)nc2)cn1 [Compound 8, 3-(6-chloro-3-pyridyl)methyl-2-[(6-chloro-3-pyridyl)methyl]imino-2,3-dihydrothiazole]	42	840000		
Cn1ccn(Cc2ccc(Cl)nc2)c1=N [Compound 13, 1-(6-chloro-3-pyridyl)methyl-2-imino-3-methyl-2,3-dihydroimidazole]	15	320000		
